Reference: patent US6498247B2, “Alkali or alkaline earth metal of n-butyric acid for treatment of cognitive and emotional conditions” (Pro-Health, Inc., priority 2000, dated 2002)

Experiment: Case report: subject, under treatment for uneasiness, short temper and prolonged anger
Assay type: in vivo, human
Settings: while taking welbutrin, before the butyrate
From the text: A subject was under treatment for uneasiness, short temper and prolonged anger, and was taking welbutrin.

CC(NC(C)(C)C)C(=O)c1cccc(Cl)c1 (stereo not shown) [welbutrin, 1-(3-chlorophenyl)-2-[(1,1-dimethylethyl)amino]-1-propanone]
side effects suffered under prior treatment: stomach discomfort, memory deficiency and reduced clarity of thought
